Data set [1] in a line: XPS Pt4f surface reduction of Pt(IV) to Pt(II) under X-ray irradiation. It is filed as physicochemical. To be noted: after 30 min irradiation, calculated from Pt(IV) abundances. From the text:
The Pt(IV) complexes were also characterized by X-ray photoelectron spectroscopy (XPS) in order to obtain information on the surface chemical composition and on the platinum speciation. Despite the surface sensitivity of the technique (topmost 5–8 nm), the analysis on homogeneous samples provides useful information on the chemical environment of all detected elements. […] Two doublets were found: one is attributed to Pt(II) (BE Pt4f7/2 = 72.9 ± 0.2 eV and BE Pt4f5/2 = 76.2 ± 0.2 eV), while the second doublet is attributed to Pt(IV) (BE Pt4f7/2 = 75.6 ± 0.2 eV and BE Pt4f5/2 = 79.0 ± 0.2 eV).
The Pt(IV)/Pt(II) relative abundance varies from case to case; moreover, if the X-ray degradation is monitored after 30 min exposure to the X-ray beam, an increase of the Pt(II) relative abundance is observed (Figure 8b).
X-ray Photoelectron Spectroscopy (XPS) analyses were run on a PHI 5000 Versa Probe II Scanning XPS Microprobe spectrometer (ULVAC PHI Inc., Kanagawa, Japan). Measurements were carried out using a monochromatic Al Kα source (X-ray spot 200 μm) at a power of 50.3 W. Wide scan and detailed spectra (Pt4f, C1s, Cl2p, N1s, O1s) were acquired in Constant Analyzer Energy (CAE) mode with a pass energy of 117.40 and 29.35 eV, respectively. An electron gun was used for charge compensation (1.0 V, 20.0 μA). Due to the X-ray sensitivity of Pt(IV) complexes, the Pt4f spectral region was acquired first. X-ray degradation kinetics experiments were performed analyzing the same sample area after 30 min. Data processing was performed by using the MultiPak software v. 9.8.0.19.

Data set [2] has as its system HCT-15 human colon carcinoma cells. As to the kind of experiment: MTT cytotoxicity test, 72 h. It is filed as cell-based. To be noted: HCT-15, MTT. How it is done:
(§1) The in vitro cytotoxic activities of compounds 1–6 were assayed on a panel of human cancer cell lines containing examples of pancreatic (PSN-1), colon (HCT-15 and LoVo), cervical (A431), and ovarian (2008) cancers. Cisplatin and oxaliplatin were used as reference compounds and were tested under the same experimental conditions.
(§2) Human colon (HCT-15 and LoVo) and pancreatic (PSN-1) carcinoma cell lines were obtained from the American Type Culture Collection (ATCC, RocKville, MD). The 2008 human ovarian cancer cells were kindly provided by Prof. G. Marverti (Dept. of Biomedical Science of Modena University, Italy). Human cervical carcinoma (A431) cells were kindly provided by Prof. F. Zunino (Division of Experimental Oncology B, Istituto Nazionale dei Tumori, Milan, Italy). […] Cell lines were maintained in the logarithmic phase at 37 °C in a 5% carbon dioxide atmosphere using RPMI-1640 or F-12 culture medium (Euroclone) containing 10% fetal calf serum (Euroclone, Milan, Italy), antibiotics (50 units per mL penicillin and 50 μg mL^−1 streptomycin), and 2 mM L-glutamine.
(§3) The growth inhibitory effect toward the tumor cell lines was evaluated by the MTT test. Briefly, 3-8·10^3 cells/well, depending upon the growth characteristics of the cell lines, were seeded in 96-well microplates in growth medium (100 µL) and then incubated at 37 °C in a 5% carbon dioxide atmosphere. After 24 h, the medium was removed and replaced with a fresh one containing the compound to be tested at the appropriate concentration. Triplicate cultures were established for each treatment. After 72 h, each well was treated with 10 µL of a 5 mg·mL^−1 MTT (3-(4,5-dimethylthiazol-2-yl)-2,5-diphenyltetrazolium bromide) saline solution and, after 5 h of incubation, 100 µL of a sodium dodecylsulfate (SDS) solution in HCl 0.01 M were added. Following an overnight incubation, the inhibition of cell growth induced by the tested complexes was evaluated by measuring the absorbance of each well at 570 nm using a Bio-Rad 680 microplate reader (Bio-Rad Laboratories S.r.l., Segrate (MI), Italy).

Data set [3] concerns PSN-1 human pancreatic carcinoma cells. The data set can be described thus: MTT cytotoxicity test, 72 h. To be noted: PSN-1, MTT. It counts as cell-based. On the procedure: as §1, §2, §3
In data set [4] the test system is A431 human cervical carcinoma cells. As to the kind of experiment: MTT cytotoxicity test, 72 h. It counts as cell-based. How it is done:
as §1, §2, §3

Data set [5] concerns 2008 human ovarian cancer cells. As to the kind of experiment: MTT cytotoxicity test, 72 h. It counts as cell-based. To be noted: 2008, MTT. How it is done: as §1, §2, §3
In data set [6] the test system is LoVo human colon carcinoma cells. The data set can be described thus: MTT cytotoxicity test, 72 h. It is filed as cell-based. How it is done:
as §1, §2, §3

Data set [7] relates to panel of human cancer cell lines (PSN-1, HCT-15, LoVo, A431, 2008). The data set can be described thus: MTT cytotoxicity, average over the panel of human cancer cell lines. It counts as cell-based. To be noted: 72 h. How it is done:
as §1
[17, 30] Thus, the pharmacological activity decreases in the order 3 >> 1 ≈ 2 ≈ 4 > 5 > 6.
as §3

The nature of data set [8]: Stability in solution followed by 1H-NMR (solvent-assisted photoreduction). It counts as physicochemical. To be noted: DMSO-d6, room temperature, not shielded from light. From the text: (5.4–6.5 ppm). Most likely, compound 4 underwent a solvent-assisted reduction process favored by light, as previously observed for similar compounds such as cis,trans,cis-[PtCl2(OH)2(cis-1,4-DACH)] [19, 20]. […] This reduction/solvation could also be observed in other solvents, such as D2O and CD3OD.
As for compound 4, the reduction is probably fostered by the presence of axial chlorido ligand(s).
The ^13C NMR signals are influenced by the asymmetry of the complex with respect to the equatorial plane with two peaks at 125.4 and 125.2 ppm for the vinylic carbons, two signals at 60.2 and 59.3 ppm for the methynic carbons, and two signals at 33.1 and 32.6 ppm for the methylenic carbons (Figure S10).

Consider 3 molecules from publication PMC7177638 (International Journal of Molecular Sciences, 2020).

Structures are written as SMILES.

Take `NC1CC=CCC1N.O=C([O-])C(=O)[O-].O=C([O-])c1ccccc1.O=C([O-])c1ccccc1.[Pt+4]` (mixture of isomers) [Complex 3, cis,trans,cis-[Pt(OXA)(BzO)2(DACHEX)]]: in data set [1], the “% of Reduction” value is 66%. Further, the IC50 in data set [2] came to 410 ± 100 nM; in data set [3], 540 ± 300 nM; in data set [4], 160 ± 70 nM; in data set [5] it was 140 ± 30 nM; in data set [6], 70 ± 20 nM; in data set [7] (mean over the cell line panel), 260 nM. In addition, the “times more cytotoxic than the other Pt(IV) compounds of the series” value was “about five times more active” in data set [7] and 5–8 in data set [7] (listed as bis-benzoate derivative).

With `CC(=O)[O][Pt]1([Cl])[O]C(=O)C(=O)[O]1.NC1CC=CCC1N` (racemic) [Complex 5, cis,trans,cis-[Pt(OXA)(AcO)Cl(DACHEX)]], the “% of Reduction” value in data set [1] is on record as 67%. For the same molecule, the 50% inhibitory concentration (IC50) in data set [2] amounted to 1970 ± 400 nM; in data set [3], 3580 ± 1400 nM; in data set [4], 1510 ± 600 nM; in data set [5], 930 ± 300 nM; in data set [6], 250 ± 50 nM. Also, the “stability in solution (reduction to Pt(II) / solvation)” value in data set [8] is given as “shows a photo-assisted reduction accompanied by solvation”.

Regarding `NC1CC=CCC1N.O=C1[O][Pt]([OH])([Cl])[O]C1=O` (racemic) [Complex 6, cis,trans,cis-[Pt(OXA)(OH)Cl(DACHEX)]], the “% of Reduction” value in data set [1] was 64%. The IC50 was 1670 ± 400 nM in data set [2]; 5250 ± 1200 nM in data set [3]; 1310 ± 700 nM in data set [4]; 1870 ± 400 nM in data set [5]; 660 ± 20 nM in data set [6]. Moreover, the “stability in solution (reduction to Pt(II) / solvation)” value in data set [8] is recorded as “underwent reduction followed by solvation”.
